# Experimental data from article PMC3306445 (Journal of Medicinal Chemistry, 2012).
# Columns and labels:
# [1] = target: Pseudomonas aeruginosa thymidylate monophosphate kinase (TMK) (Pseudomonas aeruginosa, UniProt Q9HZN8); assay: Thymidylate kinase kinetic assay; type: biochemical; details: for fold improved inhibition over 1: PaTMK IC50 compared with 1; for fold decreased inhibition compared with 17: PaTMK IC50 compared with 17; for fold improved potency over 19: PaTMK IC50 compared with secondary amide 19
# TMK = details: high binding affinity due to LID loop closure; cited from earlier work
# Pseudomonas aeruginosa thymidylate monophosphate kinase (TMK), sequence (Q9HZN8 whole entry): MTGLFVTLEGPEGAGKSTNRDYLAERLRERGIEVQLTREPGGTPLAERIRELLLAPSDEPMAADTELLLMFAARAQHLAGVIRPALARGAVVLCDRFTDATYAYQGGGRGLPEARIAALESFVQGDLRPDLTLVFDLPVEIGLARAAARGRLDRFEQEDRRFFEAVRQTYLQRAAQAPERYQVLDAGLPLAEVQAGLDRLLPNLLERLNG
compound,measurement,setting,value
"Cn1c(=O)[nH]c2ncc(-c3cccc(C#N)c3)cc21 [Compound 14, 3-(1-Methyl-2-oxo-2,3-dihydro-1H-imidazo[4,5-b]pyridin-6-yl)benzonitrile]",PaTMK inhibition (in words),[1],inactive
"Cl.Cn1c(=O)[nH]c2ncc(-c3cccc(CN)c3)cc21 [Compound 15, 6-(3-(Aminomethyl)phenyl)-1-methyl-1H-imidazo[4,5-b]pyridin-2(3H)-one hydrochloride]",PaTMK inhibition (in words),[1],lack of activity
"Cn1c(=O)[nH]c2ncc(-c3cccc(C(N)=O)c3)cc21 [Compound 17, 3-(1-Methyl-2-oxo-2,3-dihydro-1H-imidazo[4,5-b]pyridin-6-yl)benzamide]",fold improved inhibition over 1,[1],130 fold
same,fold increase of PaTMK inhibition over 26,[1]; compared with 26 (p-carboxamide),ca. 1000 fold
"CNC(=O)c1cccc(-c2cnc3[nH]c(=O)n(C)c3c2)c1 [Compound 19, N-Methyl-3-(1-methyl-2-oxo-2,3-dihydro-1H-imidazo[4,5-b]pyridin-6-yl)benzamide]",fold improved inhibition over 1,[1],30 fold
same,fold decreased inhibition compared with 17,[1],5 fold
"CN(C)C(=O)c1cccc(-c2cnc3[nH]c(=O)n(C)c3c2)c1 [Compound 20, N,N-Dimethyl-3-(1-methyl-2-oxo-2,3-dihydro-1H-imidazo[4,5-b]pyridin-6-yl)benzamide]",fold decreased inhibition compared with 17,[1],240 fold
"Cn1c(=O)[nH]c2ncc(-c3cccc(C(=O)NCC(N)=O)c3)cc21 [Compound 30, N-(2-Amino-2-oxoethyl)-3-(1-methyl-2-oxo-2,3-dihydro-1H-imidazo[4,5-b]pyridin-6-yl)benzamide]",fold improved potency over 19,[1],about 2.5 fold
"Cn1c(=O)[nH]c2ncc(-c3cccc(C(=O)NCC(=O)O)c3)cc21 [Compound 31, 2-(3-(1-Methyl-2-oxo-2,3-dihydro-1H-imidazo[4,5-b]pyridin-6-yl)benzamido)acetic acid]",fold improved potency over 19,[1],about 2.5 fold
"Cn1c(=O)[nH]c2ncc(-c3cccc(C(=O)NCCCc4ccc(F)cc4)c3)cc21 [Compound 47, N-(3-(4-Fluorophenyl)propyl)-3-(1-methyl-2-oxo-2,3-dihydro-1H-imidazo[4,5-b]pyridin-6-yl)benzamide]",fold improved potency over 19,[1],ca. 18 fold
"Cn1c(=O)[nH]c2ncc(-c3cccc(C(=O)NCCCc4c[nH]c5ccccc45)c3)cc21 [Compound 48, N-(3-(1H-Indol-3-yl)propyl)-3-(1-methyl-2-oxo-2,3-dihydro-1H-imidazo[4,5-b]pyridin-6-yl)benzamide]",fold improved potency over 19,[1],ca. 18 fold
"Cn1c(=O)[nH]c2ncc(-c3cccc(C(=O)NCC(Cc4ccccc4)C(=O)O)c3)cc21 (centres unmarked) [Compound 53, 2-Benzyl-3-(3-(1-methyl-2-oxo-2,3-dihydro-1H-imidazo[4,5-b]pyridin-6-yl)benzamido)propanoic acid]",fold improved potency over 19,[1],ca. 18 fold
"Cn1c(=O)[nH]c2ncc(-c3cccc(C(=O)NCCCc4ccc(C(F)(F)F)cc4)c3)cc21 [Compound 57, 3-(1-Methyl-2-oxo-2,3-dihydro-1H-imidazo[4,5-b]pyridin-6-yl)-N-(3-(4-(trifluoromethyl)phenyl)propyl)benzamide]",fold improved potency over 19,[1],ca. 18 fold
"Cc1cn([C@H]2C[C@H](O)[C@@H](COP(=O)(O)OP(=O)(O)OP(=O)(O)OP(=O)(O)OP(=O)(O)OC[C@H]3O[C@@H](n4cnc5c(N)ncnc54)[C@H](O)[C@@H]3O)O2)c(=O)[nH]c1=O [TP5A, P1-(5′-adenosyl)-P5-(5′-thymidyl)pentaphosphate]",Kd,TMK,20 nM
